Measured values: ChEMBL document CHEMBL1909046, “DrugMatrix in vitro pharmacology data”

How the values were obtained:
[1] = DRUGMATRIX: Calcium Channel Type L, Phenylalkylamine radioligand binding (ligand: [3H] (-)-Desmethoxyverapamil (D-888)); format: cell membranes, Rattus norvegicus, Wistar, Brain, Membrane; details: Not Active = under 50% inhibition at 10 µM
[2] = DRUGMATRIX: Phosphodiesterase PDE3 enzyme inhibition (substrate: [3H]cAMP + cAMP); format: tissue-based, Homo sapiens; details: platelet; Not Active = under 50% inhibition at 10 µM
[3] = DRUGMATRIX: Platelet-Derived Growth Factor (PDGF) radioligand binding (ligand: [125I] PDGF); format: cell-based; details: nih3t3; Not Active = under 50% inhibition at 10 µM
[4] = DRUGMATRIX: Sodium/nucleoside co-transporter radioligand binding (ligand: nitrobenzylthioinosine); format: cell membranes, Cavia porcellus, Dunkin-Hartley, Cerebral cortex, Membrane; details: Not Active = under 50% inhibition at 10 µM
[5] = DRUGMATRIX: Glutamate, NMDA, Agonism radioligand binding (ligand: [3H] CGP-39653); format: cell membranes, Rattus norvegicus, Wistar, Cerebral cortex, Membrane; details: Not Active = under 50% inhibition at 10 µM
[6] = target: Sodium-dependent noradrenaline transporter (Homo sapiens, UniProt P23975); assay: DRUGMATRIX: Norepinephrine Transporter radioligand binding (ligand: [125I] RTI-55); format: cell membranes, MDCK, Membrane; details: mdck; Not Active = under 50% inhibition at 10 µM
[7] = DRUGMATRIX: Glutamate, Kainate radioligand binding (ligand: [3H] Kainic acid); format: cell membranes, Rattus norvegicus, Wistar, Brain, Membrane; details: Not Active = under 50% inhibition at 10 µM
[8] = DRUGMATRIX: Tumor Necrosis Factor (TNF), Non-Selective radioligand binding (ligand: [125I] TNF-alpha); format: cell membranes, Membrane; details: u-937; Not Active = under 50% inhibition at 10 µM

Sequence of Sodium-dependent noradrenaline transporter (P23975 whole entry): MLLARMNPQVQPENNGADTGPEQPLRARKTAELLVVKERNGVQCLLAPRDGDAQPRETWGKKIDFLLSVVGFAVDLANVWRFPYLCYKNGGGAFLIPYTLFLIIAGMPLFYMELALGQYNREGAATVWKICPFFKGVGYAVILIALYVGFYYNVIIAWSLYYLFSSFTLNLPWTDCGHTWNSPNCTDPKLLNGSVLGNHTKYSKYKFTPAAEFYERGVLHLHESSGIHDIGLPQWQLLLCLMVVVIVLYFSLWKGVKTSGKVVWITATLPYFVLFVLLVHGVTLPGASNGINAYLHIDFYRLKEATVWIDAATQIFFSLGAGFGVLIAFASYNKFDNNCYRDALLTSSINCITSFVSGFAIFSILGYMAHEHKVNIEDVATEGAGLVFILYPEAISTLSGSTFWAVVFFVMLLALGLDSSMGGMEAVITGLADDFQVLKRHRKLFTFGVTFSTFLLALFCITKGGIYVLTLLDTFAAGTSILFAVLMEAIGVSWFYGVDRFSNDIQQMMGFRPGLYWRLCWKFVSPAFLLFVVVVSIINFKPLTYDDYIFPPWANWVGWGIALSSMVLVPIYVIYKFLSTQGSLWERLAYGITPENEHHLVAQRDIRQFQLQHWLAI

Row | Molecule | IC50 [1] | Ki [1] | IC50 [2] | Ki [2] | IC50 [3] | Ki [3] | IC50 [4] | Ki [4] | IC50 [5] | Ki [5] | IC50 [6] | IC50 [7] | Ki [7] | IC50 [8] | Ki [8] | IC50 ([1]; read-out: IC50) | Ki ([1]; read-out: Ki) | IC50 ([4]; read-out: IC50) | Ki ([4]; read-out: Ki) | Ki [6]
1 | CC1CCC(NC(=O)N(CCCl)N=O)CC1 (stereo not given) [SEMUSTINE] | Not Active | Not Active | Not Active | Not Active | Not Active | Not Active | Not Active | Not Active | Not Active | Not Active | Not Active | Not Active | Not Active | Not Active | Not Active |  |  |  |  | 
2 | O=C1C[C@@H]2OCC=C3CN4CC[C@]56c7ccccc7N1[C@H]5[C@H]2[C@H]3C[C@H]46 [STRYCHNINE] | Not Active | Not Active | Not Active | Not Active | Not Active | Not Active | Not Active | Not Active | Not Active | Not Active | Not Active | Not Active | Not Active | Not Active | Not Active |  |  |  |  | 
3 | C[S+]([O-])c1ccc(-c2nc(-c3ccncc3)c(-c3ccc(F)cc3)[nH]2)cc1 (stereo not given) [SB-203580] |  |  |  |  |  |  |  |  |  |  | Not Active |  |  |  |  |  |  |  |  | 
4 | CC(=N)S [THIOACETAMIDE] | Not Active | Not Active | Not Active | Not Active | Not Active | Not Active | Not Active | Not Active | Not Active | Not Active | Not Active | Not Active | Not Active | Not Active | Not Active |  |  |  |  | 
5 | COC(=O)[C@H]1[C@H]2C[C@@H]3c4[nH]c5cc(OC)ccc5c4CCN3C[C@H]2C[C@@H](OC(=O)c2cc(OC)c(OC)c(OC)c2)[C@@H]1OC [RESERPINE] |  |  | Not Active | Not Active | Not Active | Not Active | Not Active | Not Active | Not Active | Not Active | Not Active | Not Active | Not Active | Not Active | Not Active | 2050 nM | 1990 nM |  |  | 
6 | O=c1[nH]c(=O)n(C2CCCO2)cc1F (stereo not given) [TEGAFUR] | Not Active | Not Active | Not Active | Not Active | Not Active | Not Active | Not Active | Not Active | Not Active | Not Active | Not Active | Not Active | Not Active | Not Active | Not Active |  |  |  |  | 
7 | C[N+](C)(C)CCOC(=O)CCC(=O)OCC[N+](C)(C)C.[Cl-].[Cl-] [SUCCINYLCHOLINE CHLORIDE] | Not Active | Not Active | Not Active | Not Active | Not Active | Not Active | Not Active | Not Active | Not Active | Not Active | Not Active | Not Active | Not Active | Not Active | Not Active |  |  |  |  | 
8 | CCCCC(=O)N(Cc1ccc(-c2ccccc2-c2nnn[nH]2)cc1)[C@H](C(=O)O)C(C)C | Not Active | Not Active | Not Active | Not Active | Not Active | Not Active | Not Active | Not Active | Not Active | Not Active | Not Active | Not Active | Not Active | Not Active | Not Active |  |  |  |  | 
9 | Oc1ccc2c3c1O[C@H]1[C@@H](O)CC[C@@]4(O)[C@@H](C2)N(CC2CCC2)CC[C@]314 [NALBUPHINE] |  |  |  |  |  |  |  |  |  |  | Not Active |  |  |  |  |  |  |  |  | 
10 | O=C(O)c1ccccc1O [SALICYLIC ACID] | Not Active | Not Active | Not Active | Not Active | Not Active | Not Active | Not Active | Not Active | Not Active | Not Active | Not Active | Not Active | Not Active | Not Active | Not Active |  |  |  |  | 
11 | Nc1ccc(S(=O)(=O)NC(=O)c2ccccc2)cc1 [SULFABENZAMIDE] | Not Active | Not Active | Not Active | Not Active | Not Active | Not Active | Not Active | Not Active | Not Active | Not Active | Not Active | Not Active | Not Active | Not Active | Not Active |  |  |  |  | 
12 | C[C@@](Cc1ccc(O)c(O)c1)(NN)C(=O)O.O [CARBIDOPA] | Not Active | Not Active | Not Active | Not Active | Not Active | Not Active | Not Active | Not Active | Not Active | Not Active | Not Active | Not Active | Not Active | Not Active | Not Active |  |  |  |  | 
13 | CCCCCCCCNC(C)C(O)c1ccc(SC(C)C)cc1 (stereo not given) [SULOCTIDIL] |  |  | Not Active | Not Active |  |  | Not Active | Not Active | Not Active | Not Active |  | Not Active | Not Active |  |  | 525 nM | 510 nM |  |  | 
14 | CN1CCN(CCCN2c3ccccc3Sc3ccc(C(F)(F)F)cc32)CC1 [TRIFLUOPERAZINE] | Not Active | Not Active | Not Active | Not Active | Not Active | Not Active | Not Active | Not Active | Not Active | Not Active | Not Active | Not Active | Not Active | Not Active | Not Active |  |  |  |  | 
15 | C[C@]12C=CC(=O)C=C1CC[C@@H]1[C@@H]2C(=O)C[C@@]2(C)[C@H]1CC[C@]2(O)C(=O)CO [PREDNISONE] | Not Active | Not Active | Not Active | Not Active | Not Active | Not Active |  |  | Not Active | Not Active | Not Active | Not Active | Not Active | Not Active | Not Active |  |  | 4950 nM | 1690 nM | 
16 | OCCOCCN1CCN(C2=Nc3ccccc3Sc3ccccc32)CC1 [QUETIAPINE] |  |  |  |  |  |  |  |  |  |  | Not Active |  |  |  |  |  |  |  |  | 
17 | O=C(O)CCCCC1CCSS1 (stereo not drawn) [LIPOIC ACID, ALPHA] | Not Active | Not Active | Not Active | Not Active | Not Active | Not Active | Not Active | Not Active | Not Active | Not Active | Not Active | Not Active | Not Active | Not Active | Not Active |  |  |  |  | 
18 | Cc1ccc(C(=O)c2ccc(CC(=O)O)n2C)cc1 [TOLMETIN] | Not Active | Not Active | Not Active | Not Active | Not Active | Not Active | Not Active | Not Active | Not Active | Not Active | Not Active | Not Active | Not Active | Not Active | Not Active |  |  |  |  | 
19 | CC(=O)OCC(COC(C)=O)OC(C)=O [TRIACETIN] | Not Active | Not Active | Not Active | Not Active | Not Active | Not Active | Not Active | Not Active | Not Active | Not Active | Not Active | Not Active | Not Active | Not Active | Not Active |  |  |  |  | 
20 | TRANSPLATIN | Not Active | Not Active | Not Active | Not Active | Not Active | Not Active | Not Active | Not Active | Not Active | Not Active | Not Active | Not Active | Not Active | Not Active | Not Active |  |  |  |  | Not Active
21 | O=C(O)COc1ccc(C(=O)c2cccs2)c(Cl)c1Cl | Not Active | Not Active | Not Active | Not Active | Not Active | Not Active | Not Active | Not Active | Not Active | Not Active | Not Active | Not Active | Not Active | Not Active | Not Active |  |  |  |  | 
22 | ZIRCONIUM(IV) CHLORIDE | Not Active | Not Active | Not Active | Not Active | Not Active | Not Active | Not Active | Not Active | Not Active | Not Active | Not Active | Not Active | Not Active | Not Active | Not Active |  |  |  |  | Not Active
